Like-named read-outs stand apart in the source and are kept apart here.
How the values were obtained:
[1] = molecular target: SQR of 06STD024 (SDHC / altC) mitochondria (Zymoseptoria tritici, UniProt A0A1X7RQW2+F9X9V6+F9XH52+O42772); test: Succinate-quinone (SQR) SDHI sensitivity assay on purified mitochondria, 06STD024; assay type: biochemical
Summary of the method: (§1)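 Succinate:ubiquinone/DCPIP reductase inhibition measured on purified mitochondria from Zymoseptoria tritici strains carrying either a single C-subunit gene (ZtSDHC1, ZtSDHC1_A84I or ZtSDHC3) or both ZtSDHC1 and ZtSDHC3; pTet::SDHC3 transformant tested under repressed and induced conditions.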

[2] = system: SQR (SDHC / altC) of IPO323 pTet::SDHC3 transformant, induced; test: Succinate-quinone (SQR) SDHI sensitivity assay on purified mitochondria, IPO323 pTet::SDHC3 induced; assay type: biochemical, Zymoseptoria tritici
Summary of the method: as §1

[3] = molecular target: SQR (SDHC) of D024 SDHC3 KO mitochondria (Zymoseptoria tritici, UniProt F9X9V6+F9XH52+O42772); test: Succinate-quinone (SQR) SDHI sensitivity assay on purified mitochondria, 06STD024 SDHC3 KO; assay type: biochemical
Summary of the method: (§2)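 Mitochondria purified from each strain were used for succinate:ubiquinone/DCPIP reductase assays, with suspensions adjusted to similar initial velocity (1 OD595nm hour^-1). Inhibitor was tested at 0.047 nM–50 μM in 4x steps (11 concentrations plus DMSO). IC50 came from non-linear fits of absorbance slopes (OD/min) against log concentration.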

[4] = molecular target: altC-SQR (altC) of D024 SDHC1 KO mitochondria (Zymoseptoria tritici, UniProt A0A1X7RQW2+F9X9V6+O42772); test: Succinate-quinone (SQR) SDHI sensitivity assay on purified mitochondria, 06STD024 SDHC1 KO; assay type: biochemical
Summary of the method: as §1

[5] = molecular target: WT-SQR (SDHC), IPO323 mitochondria (Zymoseptoria tritici, UniProt F9X9V6+F9XH52+O42772); test: Succinate-quinone (SQR) SDHI sensitivity assay on purified mitochondria, IPO323; assay type: biochemical; details: mitochondria of IPO323; mean of three determinations ± SD; read-out: Succinate-quinone IC50, IPO323 (SDHC)
Summary of the method: as §2

[6] = molecular target: SQR (SDHC / altC) of IPO323 pTet::SDHC3 transformant, repressed (Zymoseptoria tritici, UniProt A0A1X7RQW2+F9X9V6+F9XH52+O42772); test: Succinate-quinone (SQR) SDHI sensitivity assay on purified mitochondria, IPO323 pTet::SDHC3 repressed; assay type: biochemical
Summary of the method: as §1

[7] = molecular target: C_A84I-SQR (SDHC_A84I), IPO323_Flu21 mitochondria (Zymoseptoria tritici, UniProt F9X9V6+F9XH52+O42772, A84I); test: Succinate-quinone (SQR) SDHI sensitivity assay on purified mitochondria, IPO323_Flu21; assay type: biochemical
Protocol: Succinate-ubiquinone oxidoreductase (SQR) inhibition assays were performed on mitochondrial extracts from a panel of strains that were (i) either carrying a unique C-subunit encoding gene (ZtSDHC1, ZtSDHC1_A84I or Zt-SDHC3), or (ii) carrying two C-subunit encoding genes ZtSDHC1 and ZtSDHC3 (Table 1).
Biomass production, mitochondrial extraction and purification were performed as described in [14]. Succinate: ubiquinone/DCPIP sensitivity tests were performed as described in [14] with minor modification. The different mitochondrial suspensions were adjusted to similar initial velocity (1 OD595nm hour^-1) and inhibitor concentrations ranged between 0.047nM and 50μM with uniform 4x dilution steps (11 concentrations + DMSO control). Calculated absorbance slopes (OD/min) were used for IC50 calculations using GraphPad Prism 6.07 software non-linear curve fitting against log inhibitor concentrations.

[8] = system: Zymoseptoria tritici field and genetically modified strains; test: Liquid culture assay for fungicide sensitivity determination; assay type: cell-based; details: liquid culture sensitivity, read-out: EC50 (nM) Mean
Summary of the method: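 EC50s from liquid culture growth tests with field isolates and modified strains. Population monitoring used final concentrations 100 to 0.0001 mg.L^-1 in 10x steps (7 levels plus DMSO control); refined panel profiling used 0.5 mM to 0.47 nM in 4x steps (11 levels plus DMSO).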

[9] = IC50 ratio compared to IPO323 values

Chain of C_A84I-SQR (SDHC_A84I), IPO323_Flu21 mitochondria (F9XH52 44-187, stated change not applied): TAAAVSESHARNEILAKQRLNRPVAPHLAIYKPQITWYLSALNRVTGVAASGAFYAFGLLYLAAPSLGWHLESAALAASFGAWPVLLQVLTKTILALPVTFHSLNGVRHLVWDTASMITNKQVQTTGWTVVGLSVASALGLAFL
Chain of C_A84I-SQR (SDHC_A84I), IPO323_Flu21 mitochondria (O42772 19-297, stated change not applied): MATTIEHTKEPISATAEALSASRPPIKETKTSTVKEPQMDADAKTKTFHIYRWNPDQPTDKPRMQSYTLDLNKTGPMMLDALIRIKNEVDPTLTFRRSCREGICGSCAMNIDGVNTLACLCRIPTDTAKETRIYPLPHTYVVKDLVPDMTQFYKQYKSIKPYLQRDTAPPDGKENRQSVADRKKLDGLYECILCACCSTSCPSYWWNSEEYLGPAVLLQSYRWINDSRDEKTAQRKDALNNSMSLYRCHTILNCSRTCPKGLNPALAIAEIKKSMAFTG
Chain of C_A84I-SQR (SDHC_A84I), IPO323_Flu21 mitochondria (F9X9V6 whole entry, stated change not applied): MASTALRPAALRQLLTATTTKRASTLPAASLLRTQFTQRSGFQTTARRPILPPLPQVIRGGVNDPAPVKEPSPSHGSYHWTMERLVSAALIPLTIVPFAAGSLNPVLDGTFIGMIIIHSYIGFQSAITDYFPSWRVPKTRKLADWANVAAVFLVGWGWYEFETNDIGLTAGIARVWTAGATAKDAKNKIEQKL
Chain of C_A84I-SQR (SDHC_A84I), IPO323_Flu21 mitochondria (F9WWR1 29-643 partner): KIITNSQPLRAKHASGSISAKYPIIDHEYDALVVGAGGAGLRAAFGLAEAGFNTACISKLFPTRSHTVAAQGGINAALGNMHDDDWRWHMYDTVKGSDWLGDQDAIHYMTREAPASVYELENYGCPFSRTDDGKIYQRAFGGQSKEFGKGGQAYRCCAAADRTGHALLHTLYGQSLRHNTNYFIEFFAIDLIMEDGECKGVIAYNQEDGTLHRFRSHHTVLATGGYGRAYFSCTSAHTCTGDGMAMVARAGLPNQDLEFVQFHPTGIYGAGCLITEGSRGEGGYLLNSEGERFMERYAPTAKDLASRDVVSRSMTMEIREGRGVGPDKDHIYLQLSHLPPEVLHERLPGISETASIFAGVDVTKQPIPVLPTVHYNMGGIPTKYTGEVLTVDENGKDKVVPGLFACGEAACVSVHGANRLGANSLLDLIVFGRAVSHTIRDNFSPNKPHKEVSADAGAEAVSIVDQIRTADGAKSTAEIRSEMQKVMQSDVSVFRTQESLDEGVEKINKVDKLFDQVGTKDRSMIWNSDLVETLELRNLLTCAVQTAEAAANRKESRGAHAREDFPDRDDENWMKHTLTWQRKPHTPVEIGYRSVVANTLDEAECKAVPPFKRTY
Chain of SQR (SDHC) of D024 SDHC3 KO mitochondria (F9XH52 44-187): as the sequence (F9XH52 44-187, stated change not applied) above
Chain of SQR (SDHC) of D024 SDHC3 KO mitochondria (O42772 19-297): as the sequence (O42772 19-297, stated change not applied) above
Chain of SQR (SDHC) of D024 SDHC3 KO mitochondria (F9X9V6 1-193): as the sequence (F9X9V6 whole entry, stated change not applied) above
Chain of SQR (SDHC) of D024 SDHC3 KO mitochondria (F9WWR1 29-643 partner): as the sequence (F9WWR1 29-643 partner) above
Chain of SQR (SDHC / altC) of IPO323 pTet::SDHC3 transformant, repressed (F9XH52 44-187): as the sequence (F9XH52 44-187, stated change not applied) above
Chain of SQR (SDHC / altC) of IPO323 pTet::SDHC3 transformant, repressed (O42772 20-297): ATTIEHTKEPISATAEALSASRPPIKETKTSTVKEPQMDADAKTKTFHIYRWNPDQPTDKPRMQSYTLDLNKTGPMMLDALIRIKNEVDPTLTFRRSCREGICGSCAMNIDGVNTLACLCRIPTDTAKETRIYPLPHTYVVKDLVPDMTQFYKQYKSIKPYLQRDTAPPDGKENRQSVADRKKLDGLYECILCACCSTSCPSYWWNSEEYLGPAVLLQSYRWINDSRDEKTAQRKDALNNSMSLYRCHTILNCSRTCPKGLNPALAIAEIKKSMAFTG
Chain of SQR (SDHC / altC) of IPO323 pTet::SDHC3 transformant, repressed (F9X9V6 1-193): as the sequence (F9X9V6 whole entry, stated change not applied) above
Chain of SQR (SDHC / altC) of IPO323 pTet::SDHC3 transformant, repressed (A0A1X7RQW2 36-181): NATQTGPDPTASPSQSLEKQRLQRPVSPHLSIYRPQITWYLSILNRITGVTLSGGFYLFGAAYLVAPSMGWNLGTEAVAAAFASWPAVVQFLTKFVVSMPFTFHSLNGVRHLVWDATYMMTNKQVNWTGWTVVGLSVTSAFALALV
Chain of SQR (SDHC / altC) of IPO323 pTet::SDHC3 transformant, repressed (F9WWR1 41-643 partner): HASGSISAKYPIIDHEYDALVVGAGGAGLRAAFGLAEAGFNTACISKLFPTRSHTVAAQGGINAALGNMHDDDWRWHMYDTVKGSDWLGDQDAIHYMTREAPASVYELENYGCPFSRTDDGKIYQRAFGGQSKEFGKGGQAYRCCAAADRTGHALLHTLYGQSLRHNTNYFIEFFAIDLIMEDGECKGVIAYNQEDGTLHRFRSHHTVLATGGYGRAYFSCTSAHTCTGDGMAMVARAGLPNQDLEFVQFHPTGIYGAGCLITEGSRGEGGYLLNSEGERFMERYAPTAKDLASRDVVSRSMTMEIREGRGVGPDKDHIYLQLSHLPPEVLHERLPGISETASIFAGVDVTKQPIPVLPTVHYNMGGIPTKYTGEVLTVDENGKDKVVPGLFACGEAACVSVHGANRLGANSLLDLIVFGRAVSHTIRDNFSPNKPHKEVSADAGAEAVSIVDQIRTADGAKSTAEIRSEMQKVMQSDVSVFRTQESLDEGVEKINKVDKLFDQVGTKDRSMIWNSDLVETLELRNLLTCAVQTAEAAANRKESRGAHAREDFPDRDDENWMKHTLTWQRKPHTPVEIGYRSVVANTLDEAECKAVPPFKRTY

Cn1cc(C(=O)Nc2ccc(F)cc2-c2ccc(Cl)c(Cl)c2)c(C(F)F)n1 [Bixafen]
RF (resistance factor), 06STD024 (SDHC / altC) [1, 9]: 1.3
IC50 ([1]; mitochondria of field isolate 06STD024, mean of three ± SD): 1.8 ± 0.7 nM
RF (resistance factor), pTet Induced (SDHC / altC) [2, 9]: 1.3
IC50 ([2]; IPO323 pTet::SDHC3 transformant grown in the absence of doxycycline, mean of three ± SD): 1.8 ± 0.4 nM
RF (resistance factor), D024 SDHC3 KO (SDHC) [3, 9]: 1.0
IC50 ([3]; mitochondria of 06STD024 ZtSDHC3 deletion mutant, mean of three ± SD): 1.3 ± 0.2 nM
RF (resistance factor), D024 SDHC1 KO (altC) [4, 9]: 1.5
IC50 ([4]; mitochondria of 06STD024 ZtSDHC1 deletion mutant (pure altC-SQR), mean of three ± SD): 2.1 ± 0.6 nM
IC50 [5]: 1.4 ± 0.1 nM
RF (resistance factor), pTet Repressed (SDHC / altC) [6, 9]: 1.1
IC50 ([6]; IPO323 pTet::SDHC3 transformant grown in presence of 30 mg.L^-1 doxycycline, mean of three ± SD): 1.5 ± 0.6 nM
RF (resistance factor), IPO323_Flu21 (SDHC_A84I) [7, 9]: 2.3
IC50 ([7]; mitochondria of UV mutant IPO323_Flu21, mean of three ± SD): 3.2 ± 0.5 nM
EC50 ([8]; strain 06STD024): 83.8 nM
EC50 ([8]; strain 07STGB009): 102 nM
EC50 ([8]; strain 09STD041): 219 nM
EC50 ([8]; strain 09STD053): 102 nM
EC50 ([8]; strain 09STF011): 70.1 nM
EC50 ([8]; strain 09STF037): 111 nM
EC50 ([8]; strain 09STF112): 171 nM
EC50 ([8]; strain 09STIR20.3): 204 nM
EC50 ([8]; strain Flu21 (SDHC1_A84I)): 959 nM
EC50 ([8]; strain IPO323): 106 nM
EC50 ([8]; strain IPO94269): 109 nM
EC50 ([8]; strain KO_SDHC1_T1): 710 nM
EC50 ([8]; strain KO_SDHC1_T3): 447 nM
EC50 ([8]; strain KO_SDHC3_T4): 204 nM
EC50 ([8]; strain KO_SDHC3_T13): 180 nM
EC50 ([8]; strain pTet::SDHC3_I78A_T1): 94.3 nM
EC50 ([8]; strain pTet::SDHC3_I78A_T5): 174 nM
EC50 ([8]; strain pTet::SDHC3_I78A_T15): 104 nM
EC50 ([8]; strain pTet::SDHC3_I78A_T35): 27.7 nM
EC50 ([8]; strain pTet::SDHC3_T1): 141 nM
EC50 ([8]; strain pTet::SDHC3_T2): 185 nM
EC50 ([8]; strain pTet::SDHC3_T3): 120 nM
EC50 ([8]; strain pTet::SDHC3_T7): 192 nM
